The record followed here is patent publication US20030129189A1, “Tumor necrosis factor-gamma” (priority 1994, published 2003).

Holding throughout (format): cell-based
Test [1] deals with THP-1. Kind of test: TNF-gamma activity on THP-1 cells. Also on record: key: The numbers of “+” indicate the relative level of activities.; ++: The numbers of “+” indicate the relative level of activities.; +++: The numbers of “+” indicate the relative level of activities.; “−” indicates no detected activity at the concentration range tested. Conditions: THP-1, human monocytic leukemia.

Test [2] has as its system bovine pulmonary artery endothelial cells (BPAEC). Kind of test: Endothelial cell apoptosis (morphology, Hoechst staining, DNA fragmentation). As to conditions: BPAEC, 48 hours, Hoechst 33342. How it is done: [Bovine pulmonary artery endothelial cells were incubated with various concentrations of TNF-gamma for 48 hours. The apoptosis was assessed by nuclear staining with Hoechst 33342 fluorescence dye (10 mg/ml).] […] [U937 cells were transfected using lipofectamine (following manufacturer's instruction) with 0.2 mg of reporter plasmid (NF-kappaB-SEAP). The transfected U937 cells were collected and added to the 96-well plate ([…]/well) with various concentrated of TNF-gamma. After Incubation at 37° C. for 72 hr, the NF-kappaB activity was measured with luminometer at absorbance of 450 nm.]
Bovine pulmonary artery endothelia cells (BPAEC) were incubated with various concentrations of TNF-gamma for 48 hours. Apoptosis was assessed morphologically and by nuclear staining with Hoechst 33342 fluorescence dye (10 mg/ml) in triplicate. Live and apoptotic cells were scored in four random fields, about 1,000 cells were counted. The DNA fragmentation was analyzed as described previously.
BPAEC were obtained from the American Type Culture Collection (Rockville, Md., USA). The cells were grown in DMEM supplemented with 10% heat-inactivated FCS in a humidified environment of 5% CO2/[…] at 37° C. as previously described (Yue, T. L., et al., Mol. Pharmacol. 51:951-962 (1997)). Cells at a subconfluent density were used. Before experiments, the medium was changed to DMEM contained 2% FCS. BPAEC from passages 17-20 were used in all studies.
To quantify cells undergoing apoptosis, cell monolayers were fixed and stained with Hoechst […] (Molecular probe, Eugene, Oreg., USA) as described previously (Yue, T. L., et al., Mol. Pharmacol. 51:951-962 (1997)). The morphological features of apoptosis (cell shrinkage, chromatin condensation, blebbing, and fragmentation) were monitored by fluorescence microscopy. Transmission electron microscopy study was done as reported previously (Yue, T. L., et al., Mol. Pharmacol. 51:951-962 (1997)).
DNA ladder: Cells treated with vehicle or TNF-gamma-alpha were lysed in lysis buffer containing 100 mM NaCl, 10 mM Tris-HCl, pH 8.0, 2.5 mM EEDTA, 0.5% SDS, and 100 micrograms/ml […]. The lysates were incubated at 55° C. for 16 h. After incubation, the lysates were gently extracted three times with pheno/chloroform/isoamyl alcohol, precipitated in ethanol, treated with DNAse-free RNAse, re-extracted, and precipitated again as described previously. DNA electrophoresis was carried out in 1.8% agarose gels containing ethidium bromide, and DNA fragmentations were visualized under ultraviolet light.
In situ end-labeling (TUNEL): BPAEC were cultured in two-chamber slides (Nunc) and treated with TNF-gamma-alpha for 8 to 24 h. In situ detection of apoptotic cells was performed by using terminal deoxyribonucleotide transferase-mediated dUTP nick end labeling with an ApopTag in situ apoptosis detection kit (Oncor) following the manufacturer's recommendation.
The cells were plated in two-chamber slides. The cells were cotransfected with 0.5 μg/ml of Pegfp-c-1 (Clontech; Li, Y. and Horwitz, M. S. Biotechnology 23:1026-1028) as a fluorescent marker of transfected cells together with 1 μg/ml of either the empty cloning vector pcDNA1 (control) or the dominant-interfering c-Jun mutant pcDNA1-FlagΔ169 (Xia, Z., et al., Science 270:1326-1331 (1995)) using Calphos Maximizer Transfection Kit (Clontech) according to the manufacturer's recommendation. Following transfection, the cells were allowed to recover in complete medium for 24 h. The cells were treated with TNF-gamma-alpha and the number of apoptotic cells was assessed by nuclear staining after fixation as described in Methods.

Test [3] concerns Jurkat. Kind of test: TNF-gamma activity on Jurkat cells. Conditions: human T-cell lymphoma. Details: key: The numbers of “+” indicate the relative level of activities.; ++: The numbers of “+” indicate the relative level of activities.; +++: The numbers of “+” indicate the relative level of activities.; “−” indicates no detected activity at the concentration range tested. The procedure: The adherent target cells were prepared from confluent cultures by trypsinization in PBS, and non-adherent target cells were harvested from stationary cultures and washed once with medium. Target cells were suspended at 3×10^5 cells/ml in medium containing 10% FCS. 0.1 ml aliquots were dispensed into 96-well flat-bottomed microtiter plates containing 0.1 ml serially diluted test samples of cells (WEHI 164 and L929). Incubation was continued for 70 hours. TNF-alpha, TNF-beta and bacterially-produced TNF-gamma were added at a 0.5 μg/ml concentration. The cytotoxicity and proliferation activity was quantified using an MTS assay performed by the addition of 20 μl of MTS and phenazine methosulfate (PMS) solution to each well. After a three hour incubation, the OD at 492 nm was measured by an ELISA plate reader. The OD492 is proportional to the number of viable cells in the wells. The percent of cytotoxicity was calculated as follows: […]. The photographs were taken after 72 hours.

For test [4], the system named is NF-kappaB p65 DNA-binding in U-937 cells. The test can be described thus: NF-kappaB activation (EMSA). An excerpt:
Activation of cellular NF-kappaB is preceded by the phosphorylation, ubiquitination, and ultimate degradation of an endogenous NF-kappaB inhibitor molecule designated IkBa. Degradation of the inhibitor allows the p65 subunit of NF-kappaB to translocate to the nucleus where it can act as a transcriptional regulator. For this reason, a electrophoretic mobility shift analysis (EMSA) is an appropriate method for analyzing activation of cellular NF-kappaB by treatment of cultured cells with TNF-gamma.
In these analyses cells (2×10^6 per ml) were treated with different concentrations (0.1-1.0 μg/ml) of bacterially-produced TNF-gamma at 37° C. for 12 hours. Nuclear extracts were then prepared from the cultured cells and EMSA was performed as is well-known in the art and essentially as described (Singh, S. and Aggarwal, B. B. J. Biol. Chem. 270:10631-10636 (1995)).
(In general: In EMSA bound probe runs differently from free probe, usually more slowly.)

Test [5] relates to adult bovine aortic endothelial cells. Kind of test: Endothelial cell apoptosis.

On to “TNF-gamma: new member of the tumor necrosis factor family; the term refers to TNF-gamma-alpha and/or TNF-gamma-beta”, for which, in test [1], the Adhesion entry is “++”, the Differentiation result is “++” and the Proliferation result was “−”. Also, in test [2], the apoptosis result is “induces apoptosis”. Also, in test [3], the Adhesion result is on record as “−−”, the Differentiation result is “−−” and the Proliferation entry was “−”. Further, in test [4] (12 hours), the “concentration giving peak activation of DNA-binding by p65” value is 1 µg/mL and the “lowest concentration giving an observable increase in p65 DNA-binding” value was 0.2 µg/mL. In addition, the “time span of p65 DNA-binding activation over basal levels” value in test [4] (after initiation of treatment) is recorded as “from 30 minutes to 18 hours”. For the same substance, in test [5], the apoptosis result is “induces apoptosis”.
